Activity calls are given as the source filed them. The rule behind the calls is not given here.

Experiment [1] concerns the target T1, DNA topoisomerase 1 (Homo sapiens) (UniProt P11387).
T1 sequence (whole entry): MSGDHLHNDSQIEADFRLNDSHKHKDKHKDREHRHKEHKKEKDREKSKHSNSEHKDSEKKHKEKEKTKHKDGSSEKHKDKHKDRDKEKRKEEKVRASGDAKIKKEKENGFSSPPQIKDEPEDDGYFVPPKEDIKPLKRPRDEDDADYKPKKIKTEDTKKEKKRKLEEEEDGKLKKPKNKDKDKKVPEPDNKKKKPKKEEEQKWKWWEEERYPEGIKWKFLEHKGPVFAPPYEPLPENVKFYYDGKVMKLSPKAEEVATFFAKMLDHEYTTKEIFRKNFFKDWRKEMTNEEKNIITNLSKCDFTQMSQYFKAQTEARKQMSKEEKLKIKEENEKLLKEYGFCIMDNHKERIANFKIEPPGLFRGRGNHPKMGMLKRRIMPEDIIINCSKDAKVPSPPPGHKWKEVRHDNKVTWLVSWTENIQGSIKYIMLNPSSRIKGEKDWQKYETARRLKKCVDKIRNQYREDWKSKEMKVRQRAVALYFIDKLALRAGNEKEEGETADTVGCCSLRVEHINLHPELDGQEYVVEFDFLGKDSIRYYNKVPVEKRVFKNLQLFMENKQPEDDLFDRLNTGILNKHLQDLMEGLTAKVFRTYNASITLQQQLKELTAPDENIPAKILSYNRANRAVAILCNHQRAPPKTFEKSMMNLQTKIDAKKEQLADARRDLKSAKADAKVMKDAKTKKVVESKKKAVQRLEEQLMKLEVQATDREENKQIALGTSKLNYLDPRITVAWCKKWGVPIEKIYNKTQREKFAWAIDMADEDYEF
The experiment can be described thus: Inhibition of human topoisomerase 1.

Another experiment concerns SK-OV-3. The experiment can be described thus: Cytotoxicity against human SKOV3 cells after 48 hrs by SRB assay. The format is functional, cell-based. The settings on record: SK-OV-3, 48 h. For orientation: The SRB assay estimates cell density from bound dye.

In the case of `CCCCCC1=C/C(=C/c2[nH]c(-c3ccc(Cc4ccc(O)cc4)[nH]3)cc2OC)N=C1C`, the inhibition result in experiment [1] was “Active”. Further, the IC50 in the experiment with SK-OV-3 was 1300 nM.

Turning to `CCCCCC1=C/C(=C/c2[nH]c(-c3ccc[nH]3)cc2OC)N=C1C` [PRODIGIOSIN], in experiment [1], the inhibition result was “Active”. In the experiment on SK-OV-3, this compound returned an IC50 of 1300 nM.

A word on the IC50: it is the midpoint of a concentration-inhibition curve. Read a high IC50 as a need for much substance.

For the origin of these results see ChEMBL document CHEMBL1154146, “A 2-substituted prodiginine, 2-(p-hydroxybenzyl)prodigiosin, from Pseudoalteromonas rubra” (J Nat Prod, 2008).
